Results as given in US20200171132A1, “METHODS OF INHIBITING FUNGAL CERAMIDE SYNTHASE FOR TREATMENT OF CRYPTOCOCCUS NEOFORMANS INFECTION” (The Research Foundation for the State University of New York, priority 2017, published 2020).

Key:
Cer1 = conditions: cited from earlier work
human Cer1 = target: T1, human Cer1 (Homo sapiens, UniProt P27544); conditions: cited from earlier work
T1 sequence (P27544 1-350): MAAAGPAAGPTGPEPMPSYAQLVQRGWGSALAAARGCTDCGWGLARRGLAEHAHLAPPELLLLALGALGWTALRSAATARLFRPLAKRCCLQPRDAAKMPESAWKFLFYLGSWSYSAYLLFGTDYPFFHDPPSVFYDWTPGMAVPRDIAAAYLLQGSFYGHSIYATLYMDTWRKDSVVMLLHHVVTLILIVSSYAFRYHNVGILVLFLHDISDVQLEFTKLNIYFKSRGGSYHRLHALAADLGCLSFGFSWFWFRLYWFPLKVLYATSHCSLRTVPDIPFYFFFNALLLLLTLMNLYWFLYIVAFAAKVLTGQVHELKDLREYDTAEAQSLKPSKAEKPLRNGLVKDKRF

Pma1 = assay: Glucose dependent medium acidification (plasma membrane H+-ATPase activity); format: cell-based, Cryptococcus neoformans
Method: Glucose-dependent medium acidification was monitored by a modification of a procedure described previously (Perlin, Brown et al. 1988, Soteropoulos, Vaz et al. 2000). Cultures of Cn strain WT, Δcer1, Δcer1+CER1, Δgcs1 were grown to mid-log Phase in YPD. The next day, these cells were transferred to DMEM at pH 4.0 and allowed to grow under shaking conditions for 24 hours. These cells were then harvested and washed using 100 mM KCl, pH 5.0. These pellets were then resuspended in 10 ml KCl, pH 5.0 and incubated under shaking condition at 30° C. These samples were then stored at 4° C. overnight prior to use. For the assay, cells were concentrated to a final A590 of approximately 2.0. 20 μl cells along with 155 μl of bromophenolblue (50 μg/ml) in 100 mM KCl, pH 5.0. 20 μl 20% (w/v) glucose was added to initiate the reaction. Medium acidification was monitored at 590 nm over a period of 5 hours (data point every 3 mins) in a microplate reader (SpectraMax M5).

GAL7::IPC1 = assay: In vitro growth at 37° C., 5% CO2, pH 4.0; format: cell-based, Cryptococcus neoformans; conditions: supplementation

| SMILES | known Cer1 inhibitor (Cer1) | targets human Cer1 (human Cer1) | Pma1 activity (Pma1; AbA treated Δgcs1 cells, supplementation) | Pma1 efficiency (Pma1; Δcer1 cells upon supplementation) | growth defect of GAL7::IPC1 in acidic conditions (GAL7::IPC1) |
| --- | --- | --- | --- | --- | --- |
| CCCCCC[C@@H](C)C1=C(O)C(=O)[C@@H]2[C@H](O)[C@H](C)C[C@H](O)[C@H]2[C@]1(C)C(=O)/C=C\O [Australifungin] | known Cer1 inhibitor | targets human Cer1 |  |  |  |
| CCCCCCCCCCCCC/C=C/[C@@H](O)[C@H](CO)NC(=O)CCCCCCCCCCCCCCCCC [C18 ceramide] |  |  | increases | increase | compensated |
